Source: patent US20150353495A1 (PORTOLA PHARMACEUTICALS, INC., priority 2010, published 2015)

Tests used:
Assay type in all cases: biochemical
JAK1 = target: T1, JAK1 (Homo sapiens, UniProt P23458); assay: Z'-LYTE kinase assay JAK1
T1 construct: 5 μl of catalytic domain recombinant Kinase enzyme+Tyr peptide substrate (Invitrogen, CA); purchased Invitrogen
Description: (§1) JAK and TYK2 tyrosine phosphorylation activity is measured using the Z′-LYTE™ Technology developed by Invitrogen Corporation (Carlsbad, Calif.). For JAK1, JAK2 and JAK3 the Z′-LYTE™ Kinase Assay Kit-Tyr6 Peptide (part number PV4122) was used. For TYK2 the Z′-LYTE™ Kinase Assay Kit-Tyr6 Peptide (part number PV3192) was used. The Z′-LYTE™ biochemical assay employs a fluorescence resonance energy transfer (FRET) coupled-enzyme format and is based on the differential sensitivity of phosphorylated and non-phosphorylated peptides to proteolitic cleavage. The assay uses a synthetic peptide substrate that is labelled with a donor fluorophore (coumarin) and an acceptor fluorophore (fluorescein) that make up a FRET pair. In the primary reaction (the Kinase Reaction), the kinase transfers the γ-phosphate of ATP to a single tyrosine residue on the substrate, while the presence of a kinase inhibitor in the primary reaction suppresses phosphorylation. In the secondary reaction (the Development Reaction), a site-specific protease (the Development Reagent) is added. The development buffer quenches the Kinase Reaction, while the protease recognizes and cleaves non-phosphorylated Z′-LYTE™ peptide substrate. Cleavage disrupts FRET between the donor and acceptor fluorophores on the non-phosphoryleted substrate, while uncleaved, phosphorylated substrate maintains FRET.
(§2) To test the ability of candidate molecules to inhibit JAK tyrosine phosphorylation activity, molecules are reconstituted in 100% DMSO and serially diluted 1:10 in polypropylene v-bottom microtiter plates. The candidate molecules are then diluted 1:25 into kinase buffer and 2.5 μl transferred into duplicate wells of a 384 well low volume black microtiter assay plate (Corning, USA). The final DMSO concentration in the assay is 1%. The kinase reaction contains 2.5 μl of a candidate molecule, 5 μl of catalytic domain recombinant Kinase enzyme+Tyr peptide substrate (Invitrogen, CA) and 2.5 μl ATP (Invitrogen, CA). The kinase reaction is allowed to procede for 1 hour at room temperature. The protease reaction is initiated by the addition of 5 μl Development Reagent (Invitrogen, CA). After 1 hour incubation at room temperature the fluorescence is measured using a FlexStation plate reader (Molecular Devices, Sunnyvale, Calif.).

JAK2 = target: T2, JAK2 (Homo sapiens, UniProt O60674); assay: Z'-LYTE kinase assay JAK2
T2 construct: 5 μl of catalytic domain recombinant Kinase enzyme+Tyr peptide substrate (Invitrogen, CA); purchased Invitrogen
Description: as §1, §2

JAK3 = target: T3, JAK3 (Homo sapiens, UniProt P52333); assay: Z'-LYTE kinase assay JAK3
T3 construct: 5 μl of catalytic domain recombinant Kinase enzyme+Tyr peptide substrate (Invitrogen, CA); purchased Invitrogen
Description: as §1, §2

T1 sequence (P23458 875-1153 limits assumed): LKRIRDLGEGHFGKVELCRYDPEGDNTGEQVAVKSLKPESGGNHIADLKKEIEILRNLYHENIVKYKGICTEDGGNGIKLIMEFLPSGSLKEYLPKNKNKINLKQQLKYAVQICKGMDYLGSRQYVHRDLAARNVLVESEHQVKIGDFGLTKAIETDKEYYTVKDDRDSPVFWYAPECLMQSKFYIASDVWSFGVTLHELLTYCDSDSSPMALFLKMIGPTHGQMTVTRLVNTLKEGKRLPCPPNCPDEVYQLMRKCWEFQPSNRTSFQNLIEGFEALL
T2 sequence (O60674 849-1124 limits assumed): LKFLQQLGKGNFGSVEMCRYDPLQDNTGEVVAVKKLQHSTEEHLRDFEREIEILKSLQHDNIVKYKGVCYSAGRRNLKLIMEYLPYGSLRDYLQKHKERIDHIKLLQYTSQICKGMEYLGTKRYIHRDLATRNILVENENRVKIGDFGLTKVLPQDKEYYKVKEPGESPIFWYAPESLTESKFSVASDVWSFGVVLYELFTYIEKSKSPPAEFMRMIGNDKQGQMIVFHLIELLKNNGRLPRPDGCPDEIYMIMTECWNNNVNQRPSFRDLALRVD
T3 sequence (P52333 822-1111 limits assumed): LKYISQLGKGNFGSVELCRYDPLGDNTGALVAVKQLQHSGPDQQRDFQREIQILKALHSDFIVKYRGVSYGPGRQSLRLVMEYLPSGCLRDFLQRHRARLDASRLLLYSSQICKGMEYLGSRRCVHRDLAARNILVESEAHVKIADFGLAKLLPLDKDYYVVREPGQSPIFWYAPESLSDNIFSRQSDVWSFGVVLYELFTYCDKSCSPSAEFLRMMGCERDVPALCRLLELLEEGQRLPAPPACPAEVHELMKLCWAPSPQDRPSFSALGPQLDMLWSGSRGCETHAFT

IC50 (JAK1) | IC50 (JAK2) | IC50 (JAK3) | SMILES
> 1000 nM | > 1000 nM | 100 to 1000 nM | COc1ccc(Nc2cc(NC[C@H]3CCCN(C(=O)N4CCCC4)C3)c(C(N)=O)cn2)cc1 [Example 290, (R)-6-(4-methoxyphenylamino)-4-((1-(pyrrolidine-1-carbonyl)piperidin-3-yl)methylamino)nicotinamide]
> 1000 nM | > 1000 nM | 100 to 1000 nM | CC(=O)N1CCC[C@H](CNc2cc(Nc3ccc(C(=O)N(C)C)c(F)c3)ncc2C(N)=O)C1 [Example 275, (R)-4-((1-acetylpiperidin-3-yl)methylamino)-6-(4-(dimethylcarbamoyl)-3-fluorophenylamino)nicotinamide]
> 1000 nM | > 1000 nM | 10 to 100 nM | COc1ccc(Nc2cc(NCc3ccccc3)c(C(N)=O)cn2)cc1C [Example 279, 4-(benzylamino)-6-(4-methoxy-3-methylphenylamino)nicotinamide]
> 1000 nM | > 1000 nM | 10 to 100 nM | CCC(=O)N1CCC(c2ccc(Nc3cc(NC4(c5ccccc5)CC4)c(C(N)=O)cn3)cc2)CC1 [Example 375, 4-(1-phenylcyclopropylamino)-6-(4-(1-propionylpiperidin-4-yl)phenylamino)nicotinamide]
> 1000 nM | 100 to 1000 nM | 10 to 100 nM | NC(=O)c1cnc(Nc2cccc(CN3CCOCC3)c2)cc1NC1(c2ccccc2)CC1 [Example 129, 6-(3-(morpholinomethyl)phenylamino)-4-(1-phenylcyclopropylamino)nicotinamide]
100 to 1000 nM | 100 to 1000 nM | 10 to 100 nM | CS(=O)(=O)N1CCC(c2cccc(Nc3cc(NCc4ccccc4F)c(C(N)=O)cn3)c2)CC1 [Example 121, 4-(2-fluorobenzylamino)-6-(3-(1-(methylsulfonyl)piperidin-4-yl)phenylamino)nicotinamide]
1 to 10 nM | 10 to 100 nM | < 1 nM | CC(=O)Nc1ccc(Nc2cc(NCc3cccc4[nH]ccc34)c(C(N)=O)cn2)cc1 [Example 472, 4-((1H-indol-4-yl)methylamino)-6-(4-acetamidophenylamino)nicotinamide]
100 to 1000 nM | 100 to 1000 nM | 10 to 100 nM | NC(=O)c1cnc(Nc2ccc(C3CCOCC3)cc2)cc1NCc1nccs1 [Example 172, 6-(4-(tetrahydro-2H-pyran-4-yl)phenylamino)-4-(thiazol-2-ylmethylamino)nicotinamide]
100 to 1000 nM | 100 to 1000 nM | 10 to 100 nM | CCC(=O)N1CCC(c2ccc(Nc3cc(NCc4nccs4)c(C(N)=O)cn3)cc2)CC1 [Example 177, 6-(4-(1-propionylpiperidin-4-yl)phenylamino)-4-(thiazol-2-ylmethylamino)nicotinamide]
> 1000 nM | > 1000 nM | > 1000 nM | COc1ccc(Nc2cc(N[C@@H]3CCCN(C(C)=O)C3)c(C(N)=O)cn2)cc1 [Example 37, (R)-4-(1-acetylpiperidin-3-ylamino)-6-(4-methoxyphenylamino)nicotinamide]
100 to 1000 nM | 100 to 1000 nM | 10 to 100 nM | COc1ccc(Nc2cc(NCc3ccccc3)c(C(N)=O)cn2)cc1OC [Example 293, 4-(benzylamino)-6-(3,4-dimethoxyphenylamino)nicotinamide]
> 1000 nM | > 1000 nM | 100 to 1000 nM | COCC(=O)N1CCC[C@@H](CNc2cc(Nc3ccc(OC)cc3)ncc2C(N)=O)C1 [Example 51, (S)-4-((1-(2-methoxyacetyl)piperidin-3-yl)methylamino)-6-(4-methoxyphenylamino)nicotinamide]
100 to 1000 nM | 10 to 100 nM | 1 to 10 nM | CC(=O)N(C)c1ccc(Nc2cc(NCc3cccc4ccsc34)c(C(N)=O)cn2)cc1 [Example 468, 4-(benzo[b]thiophen-7-ylmethylamino)-6-(4-(N-methylacetamido)phenylamino)nicotinamide]
> 1000 nM | 100 to 1000 nM | 10 to 100 nM | COC[C@@H](Nc1cc(Nc2ccc(C(=O)N(C)C)cc2)ncc1C(N)=O)c1ccccc1 [Example 263, (S)-6-(4-(dimethylcarbamoyl)phenylamino)-4-(2-methoxy-1-phenylethylamino)nicotinamide]
> 1000 nM | > 1000 nM | 10 to 100 nM | NC(=O)c1cnc(Nc2ccc(N3CCCCC3)cc2)cc1NC1(c2ccccc2)CC1 [Example 362]
> 1000 nM | > 1000 nM | 10 to 100 nM | COc1ccc(Nc2cc(NCc3cccc(F)c3F)c(C(N)=O)cn2)cc1 [Example 101, 4-(2,3-difluorobenzylamino)-6-(4-methoxyphenylamino)nicotinamide]
> 1000 nM | > 1000 nM | > 1000 nM | COc1ccc(Nc2cc(Nc3ccc(C)cc3)c(C(N)=O)cn2)cc1 [Example 33, 6-(4-methoxyphenylamino)-4-(p-tolylamino)nicotinamide]
> 1000 nM | 100 to 1000 nM | 10 to 100 nM | NC(=O)c1cnc(Nc2ccc(S(=O)(=O)N3CCC3)cc2)nc1NCc1ccccc1 [Example 434, 2-(4-(azetidin-1-ylsulfonyl)phenylamino)-4-(benzylamino)pyrimidine-5-carboxamide]
> 1000 nM | > 1000 nM | 10 to 100 nM | COc1ccc(Nc2cc(NCc3cccc(S(C)(=O)=O)c3)c(C(N)=O)cn2)cc1 [Example 301, 6-(4-methoxyphenylamino)-4-(3-(methylsulfonyl)benzylamino)nicotinamide]
> 1000 nM | > 1000 nM | > 1000 nM | Cn1c(CNc2cc(Nc3ccc(C4CCOCC4)cc3)ncc2C(N)=O)nc2ccccc21 [Example 182, 4-((1-methyl-1H-benzo[d]imidazol-2-yl)methylamino)-6-(4-(tetrahydro-2H-pyran-4-yl)phenylamino)nicotinamide]
100 to 1000 nM | 100 to 1000 nM | 10 to 100 nM | CNC(=O)Cc1ccc(Nc2cc(NCc3ccccc3)c(C(N)=O)cn2)cc1 [Example 340, 4-(benzylamino)-6-(4-(2-(methylamino)-2-oxoethyl)phenylamino)nicotinamide]
> 1000 nM | > 1000 nM | > 1000 nM | COc1ccc(Nc2cc(Nc3ccc(OC)cc3)c(C(N)=O)cn2)cc1 [Example 34, 4,6-bis(4-methoxyphenylamino)nicotinamide]
> 1000 nM | > 1000 nM | > 1000 nM | COc1ccc(Nc2cc(N[C@H]3CCCN(C(C)=O)C3)c(C(N)=O)cn2)cc1 [Example 36, (S)-4-(1-acetylpiperidin-3-ylamino)-6-(4-methoxyphenylamino)nicotinamide]
100 to 1000 nM | 100 to 1000 nM | 1 to 10 nM | NC(=O)c1cnc(Nc2cccc(C(=O)N3CCC3)c2)cc1NCc1cc(F)ccc1F [Example 99, 6-(3-(azetidine-1-carbonyl)phenylamino)-4-(2,5-difluorobenzylamino)nicotinamide]
> 1000 nM | > 1000 nM | 1 to 10 nM | CCC(=O)N1CCC(c2ccc(Nc3cc(NCc4cccc(-c5cccnc5)c4)c(C(N)=O)cn3)cc2)CC1 [Example 416, 6-(4-(1-propionylpiperidin-4-yl)phenylamino)-4-(3-(pyridine-3-yl)benzylamino)nicotinamide]
